In general, IC50 refers to the point on the concentration scale where inhibition reaches its midpoint.

This is an account of results in patent US7667052B2 (Eisai R&D Management Co., Ltd., priority 2003, dated 2010).

Each structure is given as a SMILES string. Like-named read-outs stand apart in the source and are kept apart here.

For the test, the system named is transcription from VEGF promoter. As to the kind of experiment: VEGF transcription-suppressing activity, VEGF-PLAP reporter in U251/1-8 cell. It is filed as cell-based. Conditions: Homo sapiens. The source says:
In order to prepare reporter system reflecting transcription from VEGF promoter, VEGF promoter sequence was cloned, and inserted in secretory alkali phosphatase (PLAP) vector to construct reporter vector.
In order to obtain the promoter region of human VEGF, VEGF genome was cloned from phage library. PCR primers having the sequences described in Sequence Numbers 1 and 2 were designed based on VEGF cDNA (GenBank accession number: X62568) and a fragment having about 340 bp was obtained by carrying out PCR. Human genome phage library (Human genomic library, Clontech Co.) was screened using this as a probe to obtain pUC18-VEGFA containing about 5.4 kb of VEGF 5′ flanking region. The pUC18-VEGFA was cleaved by KpnI/NheI, VEGF promoter region of about 2.3 kb obtained was inserted in the multi cloning site KpnI/NheI of secretory alkali phosphatase (PLAP) vector (Goto et al, Mol. Pharmacol., 49, 860-873, 1996), and thus, VEGF-PLAP vector was constructed.
The above-mentioned VEGF-PLAP vector was introduced in the U251 cell cultured in the DULBECCO-modified eagle medium (DMEM; manufactured by SIGMA Co., Ltd.) containing 10% fetal calf serum, and cultured in the presence of 1 mg/ml G418 (Merck Co.) to establish G418 resistant stable clone (U251/1-8 cell).
It was confirmed that U251/1-8 cell secreted PLAP under low oxygen (2% O2 incubator) in the same manner as in the report (Cell. Mol. Biol. Res. 40, 35-39, 1994) and was a reporter system reflecting the transcription from VEGF promoter. The screening of the compound suppressing VEGF production which was induced by low oxygen stimulation was carried out below using the clone.
In order to remove the influence of alkaline phosphates in serum, U251/1-8 cell was rinsed twice with the adequate amount of PBS (Phosphate buffered saline), diluted in the DMEM medium containing 10% of serum in which alkaline phosphates was inactivated by the treatment of 60° C. for 20 min., and dispensed in 96-well plates by 4×10^4 cells/180 μl.
After culturing at 37° C. overnight in a CO2 incubator (5% CO2), 20 μL of the above-mentioned incubation solution containing the test compound diluted with 3-fold succession was added, and then they were incubated in a low oxygen ([…]) incubator for 18 hours. With respect to the PLAP activity in the culture supernatants, 10 μl of the supernatants was added to 50 μl of 0.28 M Na2CO3—NaHCO3 buffer solution (pH 10.0, 8.0 mM MgSO4), and finally 50 μl of alkaline phosphatase substrate (LUMISTEIN, Genomescience Co.) was added. After reacting for one hour, the alkaline phosphatase activity of the PLAP was measured by detecting the chemical luminescence by a micro plate reader (Perkin-Elmer Co.).
The PLAP activity under usual oxygen was set as 0%, the PLAP activity of cell which was treated under low oxygen was set as 100%, and the concentration suppressing the PLAP activity by 50% was set as the IC50 value of PLAP.

The mark [1] stands for this setting: U-251, U251/1-8 cell, PLAP activity, low oxygen 18 hours, read-out: IC50 values of VEGF transcription-suppressing activity (range given).

For `CCC(OS(C)(=O)=O)C(C)C1OC1CC(C)/C=C/C=C(\C)C1OC(=O)CC(O)CCC(C)(O)C(OC(C)=O)/C=C/C1C` (stereo not drawn) [B16-1, (8E,12E,14E)-7-Acetoxy-3,6-dihydroxy-21-methanesulfonyloxy-6,10,12,16,20-pentamethyl-18,19-epoxytricosa-8,12,14-trien-11-olide], the IC50 under setting [1] fell in the range of 0.5 to 100 nM.
Still for that read-out and setting: for `CCC(OC(=O)N1CCN(C)CC1)C(C)C1OC1CC(C)/C=C/C=C(\C)C1OC(=O)CC(O)CCC(C)(O)C(OC(C)=O)/C=C/C1C` (stereo not drawn) [B36-2, (8E,12E,14E)-7-acetoxy-21-((4-methylpiperazin-1-yl)carbonyl)oxy-3,6-dihydroxy-6,10,12,16,20-pentamethyl-18,19-epoxytricosa-8,12,14-trien-11-olide] the value was 0.5 to 100 nM.
In the case of `CCC(O)C(C)C1OC1CC(C)/C=C/C=C(\C)C1OC(=O)CC(O)/C=C/C(C)(O)C(OC(C)=O)/C=C/C1C` (stereo not drawn) [11107H], the IC50 under setting [1] lay in the range of 1 to 100 nM and the IC50 (U-251, U251/1-8 cell, PLAP activity, low oxygen 18 hours, read-out: VEGF transcription suppressing activity (IC50: nM)) was found to be 3.1 nM.
Regarding `CCC(OC(=O)CN(C)C)C(C)C1OC1CC(C)/C=C/C=C(\C)C1OC(=O)CC(O)CCC(C)(O)C(OC(C)=O)/C=C/C1C` (stereo not drawn) [B28, (8E,12E,14E)-7-Acetoxy-3,6-dihydroxy-6,10,12,16,20-pentamethyl-21-dimethylaminoacetoxy-18,19-epoxytricosa-8,12,14-trien-11-olide], the IC50 under setting [1] was 0.5 to 100 nM.
`CCC(OC)C(C)C1OC1C(O)C(C)/C=C/C=C(\C)C1OC(=O)CC(O)CCC(C)(O)C(OC(C)=O)/C=C/C1C` (stereo not drawn) [B9, (8E,12E,14E)-7-Acetoxy-3,6,17-trihydroxy-21-methoxy-6,10,12,16,20-pentamethyl-18,19-epoxytricosa-8,12,14-trien-11-olide]: the IC50 (U-251, 18 h, read-out: IC50 values of VEGF transcription-suppressing activity (range given)) lay within 0.5 to 100 nM.
As to `CCC(O)C(C)C(O)C(Br)CC(C)/C=C/C=C(\C)C1OC(=O)CC(O)CCC(C)(O)C(OC(C)=O)/C=C/C1C` (stereo not drawn) [B2-1, (8E,12E,14E)-7-Acetoxy-18-bromo-3,6,19,21-tetrahydroxy-6,10,12,16,20-pentamethyltricosa-8,12,14-trien-11-olide], the IC50 under setting [1] lay within 0.5 to 100 nM.
Still for that read-out and setting: for `CCC(O)C(C)C(Cl)C(O)CC(C)/C=C/C=C(\C)C1OC(=O)CC(O)CCC(C)(O)C(OC(C)=O)/C=C/C1C` (stereo not drawn) [B1-1, (8E,12E,14E)-7-Acetoxy-19-chloro-3,6,18,21-tetrahydroxy-6,10,12,16,20-pentamethyltricosa-8,12,14-trien-11-olide] the value was 0.5 to 100 nM; for `CCC(O)C(C)C1OC1CC(C)/C=C/C=C(\C)C1OC(=O)CC(O)CCC(C)(O)C(OC(=O)N(C)C2CCN(C)CC2)/C=C/C1C` (stereo not drawn) [B80, (8E,12E,14E)-3,6,21-Trihydroxy-6,10,12,16,20-pentamethyl-7-N-methyl-N-(1-methylpiperidin-4-yl)carbamoyloxy-18,19-epoxytricosa-8,12,14-trien-11-olide], 0.5 to 100 nM.
The same measure, in the same setting: for `CCC(OC(=O)CO)C(C)C1OC1CC(C)/C=C/C=C(\C)C1OC(=O)CC(O)CCC(C)(O)C(OC(C)=O)/C=C/C1C` (stereo not drawn) [B27] the value was 0.5 to 100 nM; for `CCC(O)C(C)C1OC1CC(C)/C=C/C=C(\C)C1OC(=O)CC(O)CCC(C)(O)C(OC(=O)NCCCN2CCN(C)CC2)/C=C/C1C` (stereo not drawn) [B78, (8E,12E,14E)-3,6,21-Trihydroxy-6,10,12,16,20-pentamethyl-7-N-(3-(4-methylpiperazin-1-yl)propyl)carbamoyloxy-18,19-epoxytricosa-8,12,14-trien-11-olide], 0.5 to 100 nM; for `CCC(O)C(C)C1OC1CC(C)/C=C/C=C(\C)C1OC(=O)CC(O)CCC(C)(O)C(OC(=O)NCCc2ccccn2)/C=C/C1C` (stereo not drawn) [B47, (8E,12E,14E)-3,6,21-Trihydroxy-6,10,12,16,20-pentamethyl-7-N-(2-(2-pyridyl)ethyl)carbamoyloxy-18,19-epoxytricosa-8,12,14-trien-11-olide], 0.5 to 100 nM.
The same measure, in the same setting: for `CCOCC(=O)OC1CCC(C)(O)C(OC(C)=O)/C=C/C(C)C(/C(C)=C/C=C/C(C)CC2OC2C(C)C(O)CC)OC(=O)C1` (stereo not drawn) [B24, (8E,12E,14E)-7-Acetoxy-3-ethoxyacetoxy-6,21-dihydroxy-6,10,12,16,20-pentamethyl-18,19-epoxytricosa-8,12,14-trien-11-olide] the value was 0.5 to 100 nM; for `CCC(O)C(C)C1OC1CC(C)/C=C/C=C(\C)C1OC(=O)CC(O)CCC(C)(O)C(OC(=O)N2CCN(C)CC2)/C=C/C1C` (stereo not drawn) [B50, (8E,12E,14E)-3,6,21-Trihydroxy-6,10,12,16,20-pentamethyl-7-((4-methylpiperazin-1-yl)carbonyl)oxy-18,19-epoxytricosa-8,12,14-trien-11-olide], 0.5 to 100 nM; for `CCC(O)C(C)C1OC1CC(C)/C=C/C=C(\C)C1OC(=O)CC(O)CCC(C)(O)C(OC(=O)N(C)C)/C=C/C1C` (stereo not drawn) [B46, (8E,12E,14E)-3,6,21-Trihydroxy-6,10,12,16,20-pentamethyl-7-N,N-dimethylcarbamoyloxy-18,19-epoxytricosa-8,12,14-trien-11-olide], 0.5 to 100 nM.
As to `CCC(O)C(C)C1OC1CC(C)/C=C/C=C(\C)C1OC(=O)CC(O)CCC(C)(O)C(OC(=O)N2CCN(C(C)=O)CC2)/C=C/C1C` (stereo not drawn) [B51, (8E,12E,14E)-7-((4-Acetylpiperazin-1-yl)carbonyl)oxy-3,6,21-trihydroxy-6,10,12,16,20-pentamethyl-18,19-epoxytricosa-8,12,14-trien-11-olide], the IC50 under setting [1] was 0.5 to 100 nM.
On the same count and under the same terms, for `CCC(O)C(C)C1OC1CC(C)/C=C/C=C(\C)C1OC(=O)/C=C\CCC(C)(O)C(OC(C)=O)/C=C/C1C` (stereo not drawn) [B43-2, (2Z,8E,12E,14E)-7-acetoxy-6,21-dihydroxy-6,10,12,16,20-pentamethyl-18,19-epoxytricosa-2,8,12,14-tetraen-11-olide] the value was 0.5 to 100 nM.
For the compound `CCC(OC(=O)c1cccnc1)C(C)C1OC1CC(C)/C=C/C=C(\C)C1OC(=O)CC(O)CCC(C)(O)C(OC(C)=O)/C=C/C1C` (stereo not drawn) [B29, (8E,12E,14E)-7-Acetoxy-3-6-dihydroxy-6,10,12,16,20-pentamethyl-21-nicotinoxy-18,19-epoxytricosa-8,12,14-trien-11-olide], under setting [1], the IC50 was in the range of 0.5 to 100 nM.
Regarding `CCC(O)C(C)C1OC1CC(C)/C=C/C=C(\C)C1OC(=O)CC(O)CCC(C)(O)C(OC(=O)NCCOC)/C=C/C1C` (stereo not drawn) [B53, (8E,12E,14E)-3,6,21-Trihydroxy-7-(N-(2-methoxyethyl))carbamoyloxy-6,10,12,16,20-pentamethyl-18,19-epoxytricosa-8,12,14-trien-11-olide], the IC50 under setting [1] is 0.5 to 100 nM.
Regarding `CCC(O)C(C)C1OC1CC(C)/C=C/C=C(\C)C1OC(=O)CC(OC)CCC(C)(O)C(OC(C)=O)/C=C/C1C` (stereo not drawn) [B8-4, (8E,12E,14E)-7-acetoxy-6,21-dihydroxy-3-methoxy-6,10,12,16,20-pentamethyl-18,19-epoxytricosa-8,12,14-trien-11-olide], the IC50 under setting [1] was in the range of 0.5 to 100 nM.
On the same count and under the same terms, for `CCC(O)C(C)C1OC1CC(C)/C=C/C=C(\C)C1OC(=O)CC(O)CCC(C)(O)C(OC(=O)CN2CCOCC2)/C=C/C1C` (stereo not drawn) [B40, (8E,12E,14E)-3,6,21-Trihydroxy-6,10,12,16,20-pentamethyl-7-(morpholin-4-yl)acetoxy-18,19-epoxytricosa-8,12,14-trien-11-olide] the value was 0.5 to 100 nM; for `CCOCC(=O)OCC(=O)OC1CCC(C)(O)C(OC(C)=O)/C=C/C(C)C(/C(C)=C/C=C/C(C)CC2OC2C(C)C(O)CC)OC(=O)C1` (stereo not drawn) [B26], 0.5 to 100 nM.
On to `CCC(O)C(C)C(Br)C(O)CC(C)/C=C/C=C(\C)C1OC(=O)CC(O)CCC(C)(O)C(OC(C)=O)/C=C/C1C` (stereo not drawn) [B2-2, (8E,12E,14E)-7-acetoxy-19-bromo-3,6,18,21-tetrahydroxy-6,10,12,16,20-pentamethyltricosa-8,12,14-trien-11-olide], for which, under setting [1], the IC50 fell in the range of 0.5 to 100 nM.
For `CCC(O)C(C)C1OC1CC(C)/C=C/C=C(\C)C1OC(=O)CC(O)CCC(C)(O)C(OC(=O)N2CCN(CC)CC2)/C=C/C1C` (stereo not drawn) [B65, (8E,12E,14E)-3,6,21-Trihydroxy-6,10,12,16,20-pentamethyl-7-((4-ethylpiperazin-1-yl)carbonyl)oxy-18,19-epoxytricosa-8,12,14-trien-11-olide], the IC50 under setting [1] is 0.5 to 100 nM.
